Key:
[1] = tested on: colon cancer cell line HCT116; test: THP-1-mediated phagocytic activity against HCT116 (Examples 3 to 6); assay type: cell-based, human; conditions: cells cultured 2 days with drug at 10 μM, then anti-CAPRIN-1 humanized antibody #1 1 μg/mL
Description: Specifically, in each RAS inhibitor combination test group, the indicated drug used in combination was applied to human cancer cells, and then the cancer cells were cocultured with human monocytic cells (THP-1) in the presence of the anti-CAPRIN-1 antibody, and the antibody-mediated phagocytic activity against the cancer cells by THP-1 was evaluated.
The human-derived cancer cells used were a colon cancer cell line HCT116. On a 6-well plate, the human-derived cancer cells were cultured for 2 days in the presence of the indicated drug used in combination in the lonafarnib combination test group, the sotorasib combination test group and the salirasib combination test group. […]
Each cancer cell line after the culture was dissociated with TrypLE Express (Thermo), and the cancer cells were stained by the addition of calcein-AM at a final concentration of 0.04 μg/mL and incubation at 37° C. for 10 minutes. […] Further, dead cells were stained with propidium iodide (PI) (final concentration: 0.1 μg/mL), followed by the measurement of fluorescence from the cells by flow cytometry. […] Thus, the phagocytic activity in this evaluation system was calculated as the ratio (%) of APC-positive/calcein-AM-positive cells to the whole calcein-AM-positive population. […]

[2] = tested on: colon cancer cell line HCT116; test: THP-1-mediated phagocytic activity against HCT116 (Example 2); assay type: cell-based, human; conditions: then anti-CAPRIN-1 humanized antibody #1 5 μg/mL, FIG. 2
Description: Specifically, in each combination test group (a trametinib combination test group, a fluorouracil combination test group and an irinotecan combination test group), the indicated drug used in combination was applied to human cancer cells, and then the cancer cells were cocultured with human monocytic cells (THP-1) in the presence of the anti-CAPRIN-1 antibody, and the antibody-mediated phagocytic activity against the cancer cells by THP-1 was evaluated. The human-derived cancer cells used were melanoma cell line A375 (used only in the trametinib combination test group), colon cancer cell line HCT116, prostate cancer cell line DU145 (used only in the trametinib combination test group), and lung cancer cell line A549 (used only in the trametinib combination test group). On a 6-well plate, the human-derived cancer cells were cultured for 2 days in the presence of trametinib for the trametinib combination test group, and cultured for 2 days in the presence of the each drug used in combination for the fluorouracil combination test group and the irinotecan combination test group. The concentration of the drug used in combination was set to a concentration that decreased the proliferation rate of the cancer cells by about half at the completion of culture. […]
Each cancer cell line after the culture was dissociated with TrypLE Express (Thermo), and the cancer cells were stained by the addition of calcein-AM at a final concentration of 0.02 μg/mL and incubation at 37° C. for 30 minutes. […] Further, dead cells were stained with propidium iodide (PI) (final concentration: 0.1 μg/mL), followed by the measurement of fluorescence from the cells by flow cytometry. […] Thus, the phagocytic activity in this evaluation system was calculated as the ratio (%) of APC-positive/calcein-AM-positive cells to the whole calcein-AM-positive population.

CAPRIN-1 protein = target: T1, CAPRIN-1 protein (Homo sapiens, UniProt Q14444); test: ELISA reactivity with CAPRIN-1 protein immobilized on a plate; assay type: binding
T1 construct: made in house
T1 sequence (Q14444 1-709): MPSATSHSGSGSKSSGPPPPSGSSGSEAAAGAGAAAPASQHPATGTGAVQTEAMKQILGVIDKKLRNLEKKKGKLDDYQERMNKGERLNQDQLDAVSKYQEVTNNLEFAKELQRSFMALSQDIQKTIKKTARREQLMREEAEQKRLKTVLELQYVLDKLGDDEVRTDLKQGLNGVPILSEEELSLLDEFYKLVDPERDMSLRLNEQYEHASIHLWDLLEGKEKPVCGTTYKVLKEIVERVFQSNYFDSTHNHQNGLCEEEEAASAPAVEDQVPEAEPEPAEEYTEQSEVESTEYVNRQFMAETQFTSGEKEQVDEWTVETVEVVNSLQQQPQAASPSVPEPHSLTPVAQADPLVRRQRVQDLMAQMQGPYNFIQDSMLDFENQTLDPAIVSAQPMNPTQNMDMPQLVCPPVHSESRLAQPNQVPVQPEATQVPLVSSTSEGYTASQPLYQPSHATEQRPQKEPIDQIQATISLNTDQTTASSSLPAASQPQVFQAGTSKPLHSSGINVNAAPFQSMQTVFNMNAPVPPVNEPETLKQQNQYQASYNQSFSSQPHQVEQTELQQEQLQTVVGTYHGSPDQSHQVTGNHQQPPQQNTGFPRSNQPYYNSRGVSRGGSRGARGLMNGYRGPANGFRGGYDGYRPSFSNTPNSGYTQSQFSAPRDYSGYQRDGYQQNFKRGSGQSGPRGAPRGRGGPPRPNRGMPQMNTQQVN
Description: One hundred (100) μg of a human CAPRIN-1 recombinant protein produced according to Example 3 of WO2010/016526 was mixed with a MPL+TDM adjuvant (Sigma) in an amount equivalent to that of the recombinant protein. The mixture was used as an antigen solution per mouse. The antigen solution was administered intraperitoneally to 6-week-old Balb/c mice (Japan SLC Inc.) and then further administered 3 times […] every week for completion of immunization. A spleen was removed on day 3 after the final immunization and then ground between two sterilized glass slides. Spleen cells were obtained by repeating the following procedure three times: washing with PBS (-) (Nissui Corporation), centrifuging at 1500 rpm for 10 minutes, and removing supernatant. The obtained spleen cells were mixed with mouse myeloma cell SP2/0 (purchased from ATCC) at a ratio of 10:1. The PEG solution prepared by mixing 200 μl of RPMI1640 medium containing 10% FBS heated at 37° C. and 800 μl of PEG1500 (Boehringer) was added to the cells. The solution was incubated for 5 minutes for cell fusion. Centrifugation was performed at 1700 rpm for 5 minutes to remove supernatants. […] Absorbance at 450 nm and absorbance at 595 nm were measured using an absorption spectrometer. As a result, a plurality of hybridomas producing antibodies with high absorbances were selected. […]

## O=C(Nc1ccc2[nH]nc(-c3ccncc3)c2c1)[C@@H]1CCN(CC(=O)N2CCN(c3ccc(-c4ncccn4)cc3)CC2)C1 [SCH772984, (3R)-1-[2-oxo-2-[4-(4-pyrimidin-2-ylphenyl)piperazin-1-yl]ethyl]-N-(3-pyridin-4-yl-1H-indazol-5-yl)pyrrolidine-3-carboxamide]
[1]; FIG. 5
  phagocytic activity against cancer cells: 90%

## COc1cc(Nc2c(C#N)cnc3cc(OCCCN4CCN(C)CC4)c(OC)cc23)c(Cl)cc1Cl [bosutinib, 4-(2,4-dichloro-5-methoxyanilino)-6-methoxy-7-[3-(4-methylpiperazin-1-yl)propoxy]quinoline-3-carbonitrile]
[1]; FIG. 3
  phagocytic activity against cancer cells: 82%

## O=c1[nH]cc(F)c(=O)[nH]1 [fluorouracil]
[2]; cells cultured 2 days with drug at 0.4 μg/mL
  phagocytic activity against cancer cells: 16%

## CCc1c2c(nc3ccc(OC(=O)N4CCC(N5CCCCC5)CC4)cc13)-c1cc3c(c(=O)n1C2)COC(=O)[C@]3(O)CC [irinotecan]
[2]; cells cultured 2 days with drug at 15 μM
  phagocytic activity against cancer cells: 14%

B1: monoclonal antibody against CAPRIN-1 described in WO2013/125630: mouse monoclonal antibody; heavy-chain variable region SEQ ID NO: 114, light-chain variable region SEQ ID NO: 115; parent of humanized … (antibody, listed as Mus musculus, V domains shown)
VH: GPELVKPGASVKMSCKASGYTFTSYVMHWVKQKPGQGLEWIGYINPYNDGTKYNEKFKGKATLTSDKSSSTAYMELSSLTSEDSAVYYCARRYYYGSSGGYFDVWAQDHVRT
VL: DVQITQSPSYLAASPGETITINCRASKSISKYLAWYQEKPGKTNKLLIYSGSTLQSGIPSRFSGSGSGTDFTLTISSLEPEDFAMYYCQQHNEYPYTFGGGTKLEIKR
notes: mouse monoclonal antibody; parent of humanized antibody #1
CAPRIN-1 protein
  specific reactivity to CAPRIN-1 protein: exhibiting reactivity

— patent publication US20250281607A1, “MEDICAMENT FOR TREATMENT AND/OR PREVENTION OF CANCER” (TORAY INDUSTRIES, INC., priority 2021, published 2025)
